SMILES strings stand for the structures. pEC50: −log10 of the molar value.

The target in the first experiment is T1, acetylcholine muscarinic M1 receptor (Homo sapiens, UniProt P11229).
T1 construct: expressed in transfected cells; host or cells: CHOnfat cells (CHO cells with an NFAT reporter) expressing hM1, kept under Geneticin selection
T1 sequence (P11229 1-460): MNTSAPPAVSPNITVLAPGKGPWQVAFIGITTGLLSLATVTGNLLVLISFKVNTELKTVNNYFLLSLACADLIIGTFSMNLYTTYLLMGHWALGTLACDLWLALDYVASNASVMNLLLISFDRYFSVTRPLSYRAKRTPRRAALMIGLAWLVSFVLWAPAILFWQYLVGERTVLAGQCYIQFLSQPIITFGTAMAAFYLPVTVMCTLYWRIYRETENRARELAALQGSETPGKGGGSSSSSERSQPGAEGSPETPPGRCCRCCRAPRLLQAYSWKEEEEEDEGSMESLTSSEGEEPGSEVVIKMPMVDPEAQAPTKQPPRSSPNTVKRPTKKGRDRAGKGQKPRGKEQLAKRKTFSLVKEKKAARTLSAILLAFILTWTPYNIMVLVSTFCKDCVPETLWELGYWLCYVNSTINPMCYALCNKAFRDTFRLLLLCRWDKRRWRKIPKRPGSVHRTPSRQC
Nature of the experiment: muscarinic FLIPR assay: intracellular calcium in CHOnfat/hM1 cells, potentiation of EC20 acetylcholine. In kind it is cell-based. The note with it: M1 Pot., Table 2; CHOnfat/hM1 cells, FLIPR, EC20 acetylcholine (3 nM final). Summed up: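 CHOnfat cells stably expressing human M1, Fluo-4AM-loaded, in HBSS with 20 mM HEPES, 2.5 mM probenecid, 1% BSA. Compounds preincubated 4 min (printed "4 mM") before an EC20 acetylcholine challenge (3 nM final). FLIPR intracellular Ca²⁺ signal compared with 3 nM acetylcholine alone to detect potentiation.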
For `CN(C)C(=O)Oc1cccc(N2Cc3c(cc(CN4CCC(F)(C#N)CC4)c4cccnc34)C2=O)c1` [Example 129, 3-{5-[(4-cyano-4-fluoropiperidin-1-yl)methyl]-7-oxo-7,9-dihydro-8H-pyrrolo[3,4-h]quinolin-8-yl}phenyl dimethyl carbamate], the pEC50 is 5.66.

As to `C#CC1(F)CCN(Cc2cc3c(c4ncccc24)CN(c2cccc(OC(=O)N(C)C)c2)C3=O)CC1` [Example 130, 3-{5-[(4-ethynyl-4-fluoropiperidin-1-yl)methyl]-7-oxo-7,9-dihydro-8H-pyrrolo[3,4-h]quinolin-8-yl}phenyl dimethylcarbamate], the pEC50 was 5.85.

Still in this experiment, the particulars now being: Table 2; CHOnfat/hM1 cells, FLIPR, EC20 acetylcholine (3 nM final); read-out: M1 Pot.
`N#CC1(F)CCN(Cc2cc3c(c4ncccc24)CN(c2cccc(O)c2)C3=O)CC1` [Example 127, 4-fluoro-1-{[8-(3-hydroxyphenyl)-7-oxo-8,9-dihydro-7H-pyrrolo[3,4-h]quinolin-5-yl]methyl}piperidine-4-carbonitrile]: the pEC50 is 7.36.

Take `C#CC1(F)CCN(Cc2cc3c(c4ncccc24)CN(c2cccc(O)c2)C3=O)CC1` [Example 128, 5-[(4-ethynyl-4-fluoropiperidin-1-yl)methyl]-8-(3-hydroxyphenyl)-8,9-dihydro-7H-pyrrolo[3,4-h]quinolin-7-one]: the pEC50 was 6.07.

`CC#CC1(F)CCN(Cc2cc3c(c4ncccc24)CN([C@H]2CCCC[C@@H]2O)C3=O)CC1` [Example 131, 5-[(4-fluoro-4-prop-1-yn-1-ylpiperidin-1-yl)methyl]-8-[(1S,2S)-2-hydroxycyclohexyl]-8,9-dihydro-7H-pyrrolo[3,4-h]quinolin-7-one]: the pEC50 is 7.48.

On to `O=C1c2cc(CN3CCC(F)(C#CC4CC4)CC3)c3cccnc3c2CN1[C@H]1CCCC[C@@H]1O` [Example 132, 5-{[4-(cyclopropylethynyl)-4-fluoropiperidin-1-yl]methyl}-8-[(1S,2S)-2-hydroxycyclohexyl]-8,9-dihydro-7H-pyrrolo[3,4-h]quinolin-7-one], for which the pEC50 was 6.61.

In the case of `O=C1c2cc(CN3CCC(F)(C#Cc4ccc(F)cc4)CC3)c3cccnc3c2CN1C1CCCCC1O` (stereo not drawn) [Example 133, 5-({4-fluoro-4-[(4-fluorophenyl)ethynyl]piperidin-1-yl}methyl)-8-(2-hydroxycyclohexyl)-8,9-dihydro-7H-pyrrolo[3,4-h]quinolin-7-one], the pEC50 was 6.89.

On to `O=C1c2cc(CN3CCC(F)(Cc4ccccc4)CC3)c3cccnc3c2CN1C1CCCCC1O` (stereo not drawn) [Example 134, 5-[(4-benzyl-4-fluoropiperidin-1-yl)methyl]-8-(2-hydroxycyclohexyl)-8,9-dihydro-7H-pyrrolo[3,4-h]quinolin-7-one], for which the pEC50 is 6.68.

Take `N#CC1(Cc2ccncc2)CCN(Cc2cc3c(c4ncccc24)CN(C2CCCCC2O)C3=O)CC1` (stereo not drawn) [Example 135, 1-{[8-(2-hydroxycyclohexyl)-7-oxo-8,9-dihydro-7H-pyrrolo[3,4-h]quinolin-5-yl]methyl}-4-(pyridin-4-ylmethyl)piperidine-4-carbonitrile]: the pEC50 was 6.81.

For the compound `N#CC1(c2ccccc2)CCN(Cc2cc3c(c4ncccc24)CN([C@H]2CCCC[C@@H]2O)C3=O)CC1` [Example 136, 1-({8-[(1S,2S)-2-hydroxycyclohexyl]-7-oxo-8,9-dihydro-7H-pyrrolo[3,4-h]quinolin-5-yl}methyl)-4-phenylpiperidine-4-carbonitrile], the pEC50 is 7.85.

In the case of `CC1c2c(cc(CN3CCC(C#N)(c4ccccc4)CC3)c3cccnc23)C(=O)N1C1CCCCC1O` (stereo not drawn) [Example 137, 1-{[8-(2-hydroxycyclohexyl)-9-methyl-7-oxo-8,9-dihydro-7H-pyrrolo[3,4-h]quinolin-5-yl]methyl}-4-phenylpiperidine-4-carbonitrile], the pEC50 was 6.32.

Turning to `CC1c2c(cc(CN3CCC(C#N)(c4ccccc4)CC3)c3cccnc23)C(=O)N1C1CCCCC1O` (stereo not drawn) [Example 138, 1-{[8-(2-hydroxycyclohexyl)-9-methyl-7-oxo-8,9-dihydro-7H-pyrrolo[3,4-h]quinolin-5-yl]methyl}-4-phenylpiperidine-4-carbonitrile], the pEC50 is 7.16.

In the case of `O=C1c2cc(CN3CCC(c4ccccc4)CC3)c3cccnc3c2CN1C1CCCCC1O` (stereo not drawn) [Example 139, 8-(2-hydroxycyclohexyl)-5-[(4-phenylpiperidin-1-yl)methyl]-8,9-dihydro-7H-pyrrolo[3,4-h]quinolin-7-one], the pEC50 is 7.07.

As for `CC1c2c(cc(CN3CCC(c4ccccc4)CC3)c3cccnc23)C(=O)N1C1CCCCC1O` (stereo not drawn) [Example 140, 8-(2-hydroxycyclohexyl)-9-methyl-5-[(4-phenylpiperidin-1-yl)methyl]-8,9-dihydro-7H-pyrrolo[3,4-h]quinolin-7-one], the pEC50 is 5.49.

As for `CC1c2c(cc(CN3CCC(c4ccccc4)CC3)c3cccnc23)C(=O)N1C1CCCCC1O` (stereo not drawn) [Example 141, 8-(2-hydroxycyclohexyl)-9-methyl-5-[(4-phenylpiperidin-1-yl)methyl]-8,9-dihydro-7H-pyrrolo[3,4-h]quinolin-7-one], the pEC50 is 6.31.

In the case of `O=C1c2cc(CN3CCC(c4ccncc4)CC3)c3cccnc3c2CN1C1CCCCC1O` (stereo not drawn) [Example 142, 8-(2-hydroxycyclohexyl)-5-[(4-pyridin-4-ylpiperidin-1-yl)methyl]-8,9-dihydro-7H-pyrrolo[3,4-h]quinolin-7-one], the pEC50 was 7.29.

Consider `CC1c2c(cc(CN3CCC(c4ccncc4)CC3)c3cccnc23)C(=O)N1C1CCCCC1O` (stereo not drawn) [Example 143, 8-(2-hydroxycyclohexyl)-9-methyl-5-[(4-pyridin-4-ylpiperidin-1-yl)methyl]-8,9-dihydro-7H-pyrrolo[3,4-h]quinolin-7-one], for which the pEC50 is 7.05.

As for `O=C1c2cc(CN3CCC(O)(c4ccncc4)CC3)c3cccnc3c2CN1C1CCCCC1O` (stereo not drawn) [Example 144, 8-(2-hydroxycyclohexyl)-5-[(4-hydroxy-4-pyridin-4-ylpiperidin-1-yl)methyl]-8,9-dihydro-7H-pyrrolo[3,4-h]quinolin-7-one], the pEC50 was 6.29.

Regarding `N#CC1(c2ccccn2)CCN(Cc2cc3c(c4ncccc24)CN([C@H]2CCCC[C@@H]2O)C3=O)CC1` [Example 145, 1-({8-[(1S,2S)-2-hydroxycyclohexyl]-7-oxo-8,9-dihydro-7H-pyrrolo[3,4-h]quinolin-5-yl}methyl)-4-pyridin-2-ylpiperidine-4-carbonitrile], the pEC50 was 8.12.

For `O=C1c2cc(CN3CCC(F)(c4ccccn4)CC3)c3cccnc3c2CN1C1CCCCC1O` (stereo not drawn) [Example 146, 5-[(4-fluoro-4-pyridin-2-ylpiperidin-1-yl)methyl]-8-(2-hydroxycyclohexyl)-8,9-dihydro-7H-pyrrolo[3,4-h]quinolin-7-one], the pEC50 was 7.96.

As for `CC1c2c(cc(CN3CCC(F)(c4ccccn4)CC3)c3cccnc23)C(=O)N1[C@@H]1CCCC[C@@H]1O` (stereo partly drawn) [Example 147, 5-[(4-fluoro-4-pyridin-2-ylpiperidin-1-yl)methyl]-8-[(1R,2S)-2-hydroxycyclohexyl]-9-methyl-8,9-dihydro-7H-pyrrolo[3,4-h]quinolin-7-one], the pEC50 is 7.15.

As to `Cc1ccnc(C2(C#N)CCN(Cc3cc4c(c5ncccc35)CN(C3CCCCC3O)C4=O)CC2)c1` (stereo not drawn) [Example 148, 1-{[8-(2-hydroxycyclohexyl)-7-oxo-8,9-dihydro-7H-pyrrolo[3,4-h]quinolin-5-yl]methyl}-4-(4-methylpyridin-2-yl)piperidine-4-carbonitrile], the pEC50 is 8.33.

In the case of `C[C@@H]1c2c(cc(CN3CCC(F)(c4ccccn4)CC3)c3cccnc23)C(=O)N1[C@H]1CCCC[C@@H]1O` [Example 153, (9R)-5-[(4-fluoro-4-pyridin-2-ylpiperidin-1-yl)methyl]-8-[(1S,2S)-2-hydroxycyclohexyl]-9-methyl-8,9-dihydro-7H-pyrrolo[3,4-h]quinolin-7-one], the pEC50 was 8.10.

In the case of `COc1cccc(C2(C#N)CCN(Cc3cc4c(c5ncccc35)CN([C@H]3CCCC[C@@H]3O)C4=O)CC2)n1` [Example 154, 1-({8-[(1S,2S)-2-hydroxycyclohexyl]-7-oxo-8,9-dihydro-7H-pyrrolo[3,4-h]quinolin-5-yl}methyl)-4-(6-methoxypyridin-2-yl)piperidine-4-carbonitrile], the pEC50 is 7.72.

As to `Cn1cc(N2CCN(Cc3cc4c(c5ncccc35)CN([C@H]3CCCC[C@@H]3O)C4=O)CC2)cn1` [Example 157, 8-[(1S,2S)-2-hydroxycyclohexyl]-5-{[4-(1-methyl-1H-pyrazol-4-yl)piperazin-1-yl]methyl}-8,9-dihydro-7H-pyrrolo[3,4-h]quinolin-7-one], the pEC50 is 7.38.

Turning to `CC1c2c(cc(CN3CCN(c4cnn(C)c4)CC3)c3cccnc23)C(=O)N1C1CCCCC1O` (stereo not drawn) [Example 158, 8-(2-hydroxycyclohexyl)-9-methyl-5-{[4-(1-methyl-1H-pyrazol-4-yl)piperazin-1-yl]methyl}-8,9-dihydro-7H-pyrrolo[3,4-h]quinolin-7-one], the pEC50 is 7.15.

In the case of `O=C1c2cc(CN3CCN(c4ccncc4)CC3)c3cccnc3c2CN1C1CCCCC1O` (stereo not drawn) [Example 160, 8-(2-hydroxycyclohexyl)-5-[(4-pyridin-4-ylpiperazin-1-yl)methyl]-8,9-dihydro-7H-pyrrolo[3,4-h]quinolin-7-one], the pEC50 was 6.96.

The values above are taken from patent US9206200B2, “N-linked lactam M1 receptor positive allosteric mogulators” (Merck Sharp & Dohme Corp., priority 2011, dated 2015).
